Patent publication US9981940B2, “Aryl sulfide derivatives and aryl sulfoxide derivatives as acaricides and insecticides” (BAYER CROPSCIENCE AKTIENGESELLSCHAFT, priority 2013, dated 2018)

Tests used:
[1] = log P by HPLC (OECD Guideline 117), method [a] acidic range; assay type: physicochemical; details: for logP[a]: HPLC, method [a] acidic range; for chromatographic logP: reversed-phase C18 HPLC column, acidic range
Procedure: (§1) The log P values were determined analogously to OECD Guideline 117 (EC Directive 92/69/EEC) by HPLC (high-performance liquid chromatography) using reversed-phase columns (C 18), by the following methods:
[a] The LC-MS determination in the acidic range is effected at pH 2.7 with 0.1% aqueous formic acid and acetonitrile (contains 0.1% formic acid) as eluents; linear gradient from 10% acetonitrile to 95% acetonitrile.

Tetranychus urticae = Tetranychus urticae spray test, OP-resistant (TETRUR); assay type: in vivo; details: after 6 days
Procedure: Tetranychus urticae—Spray Test, OP-Resistant (TETRUR)
• Solvent: 78.0 parts by weight of acetone • 1.5 parts by weight of dimethylformamide • Emulsifier: 0.5 part by weight of alkylaryl polyglycol ether
To produce an appropriate active ingredient formulation, 1 part by weight of active ingredient is mixed with the specified amounts of solvent and emulsifier, and the concentrate is diluted to the desired concentration with emulsifier-containing water.
Discs of bean leaves (Phaseolus vulgaris) infested by all stages of the greenhouse red spider mite (Tetranychus urticae) are sprayed with an active ingredient formulation of the desired concentration.
After 6 days, the efficacy in % is determined 100% means that all the spider mites have been killed; 0% means that none of the spider mites have been killed.

[2] = log P by HPLC (OECD Guideline 117), method [b] neutral range; assay type: physicochemical; details: HPLC; for logP[b]: method [b] neutral range; for chromatographic logP: reversed-phase C18 HPLC column, neutral range, pH 7.8
Procedure: as §1
[b] The LC-MS determination in the neutral range is effected at pH 7.8 with 0.001 molar aqueous ammonium hydrogencarbonate solution and acetonitrile as eluents; linear gradient from 10% acetonitrile to 95% acetonitrile.

[3] = pH 2.7, HPLC, pH 2.7, read-out: log P[a]

Structure (SMILES) | logP[a] [1] | logP[b] [2] | chromatographic logP ([1]; pH 2.7, HPLC method [a], read-out: logP[a]) | chromatographic logP [1, 3] | chromatographic logP [2] | efficacy (Tetranychus urticae; application rate of 100 g/ha) [%] | efficacy (Tetranychus urticae; application rate of 500 g/ha) [%]
Cc1cc(F)c(-n2ncn(C3CC3)c2=O)cc1[S+]([O-])CC(F)(F)F (racemic) [Example 62] | 1.69 | 1.69 |  |  |  | 100 | 
Cc1cc(F)c(-n2nc(C(C)(C)C)n(C3CC3)c2=O)cc1[S+]([O-])CC(F)(F)F (racemic) [Example 64] | 2.95 | 2.97 |  |  |  |  | 100
Cc1cc(F)c(-n2nc(C3CC3)n(C3CC3)c2=O)cc1[S+]([O-])CC(F)(F)F (racemic) [Example 66] | 2.31 | 2.33 |  |  |  |  | 100
Cc1cc(F)c(-n2nc(C(F)(F)F)n(C(C)(C)C)c2=O)cc1[S+]([O-])CC(F)(F)F (racemic) [Example 68] | 3.54 | 3.49 |  |  |  |  | 100
Cc1cc(F)c(-n2nc(-c3cccc(F)c3)n(C3CC3)c2=O)cc1[S+]([O-])CC(F)(F)F (racemic) [Example 70] | 2.94 | 2.87 |  |  |  |  | 90
CCCCc1nn(-c2cc([S+]([O-])CC(F)(F)F)c(C)cc2F)c(=O)n1C1CC1 (racemic) [Example 72] | 2.94 | 2.88 |  |  |  |  | 90
CCOCc1nn(-c2cc([S+]([O-])CC(F)(F)F)c(C)cc2F)c(=O)n1C1CC1 (racemic) [Example 74] | 2.31 | 2.25 |  |  |  |  | 100
COCCc1nn(-c2cc([S+]([O-])CC(F)(F)F)c(C)cc2F)c(=O)n1C1CC1 (racemic) [Example 76] | 2.03 | 1.97 |  |  |  |  | 100
CCc1nn(-c2cc([S+]([O-])CC(F)(F)F)c(C)cc2F)c(=O)n1C1CC1 (racemic) [Example 78] | 2.20 | 2.15 |  |  |  |  | 100
CCCc1nn(-c2cc([S+]([O-])CC(F)(F)F)c(C)cc2F)c(=O)n1C1CC1 (racemic) [Example 80] | 2.56 | 2.49 |  |  |  |  | 100
CC=Cc1nn(-c2cc([S+]([O-])CC(F)(F)F)c(C)cc2F)c(=O)n1C1CC1 (racemic) [Example 82] | 2.48 | 2.42 |  |  |  |  | 100
Cc1cc(F)c(-n2nc(CC(C)C)n(C3CC3)c2=O)cc1[S+]([O-])CC(F)(F)F (racemic) [Example 84] | 2.86 | 2.80 |  |  |  |  | 100
CCC(C)c1nn(-c2cc([S+]([O-])CC(F)(F)F)c(C)cc2F)c(=O)n1C1CC1 (racemic) [Example 86] | 2.86 | 2.79 |  |  |  |  | 100
Cc1cc(F)c(-n2nc(C3CCC3)n(C3CC3)c2=O)cc1[S+]([O-])CC(F)(F)F (racemic) [Example 88] | 2.72 | 2.66 |  |  |  |  | 100
Cc1cc(F)c(-n2nc(N(C)C)n(C)c2=O)cc1[S+]([O-])CC(F)(F)F (racemic) [Example 191] | 1.86 | 1.84 |  |  |  |  | 90
Cc1cc(F)c(-n2nc(N(C)C)n(C3CC3)c2=O)cc1[S+]([O-])CC(F)(F)F (racemic) [Example 194] | 2.17 | 2.12 |  |  |  |  | 100
Cc1cc(F)c(-n2nc(SCC3CC3)n(C)c2=O)cc1[S+]([O-])CC(F)(F)F (racemic) [Example 280] | 2.82 | 2.75 |  |  |  |  | 100
Cc1cc(F)c(-n2nc(SCC(F)(F)F)n(C)c2=O)cc1[S+]([O-])CC(F)(F)F (racemic) [Example 282] | 2.57 | 2.52 |  |  |  |  | 100
COc1nn(-c2cc([S+]([O-])CC(F)(F)F)c(Br)cc2F)c(=O)n1C (stereo not shown) [Example 174] | 2.21 | 2.15 |  |  |  |  | 
CCn1c(OC)nn(-c2cc([S+]([O-])CC(F)(F)F)c(C)cc2F)c1=O (stereo not shown) [Example 181] | 2.11 | 2.07 |  |  |  |  | 
O=c1n(-c2cc(SCC(F)(F)F)c(Cl)cc2F)nc(OCC(F)(F)F)n1C1CC1 [Example 186] | 3.96 | 3.89 |  |  |  |  | 
CCOc1nn(-c2ccc(C)c(SCC(F)(F)F)c2)c(=O)n1OC [Example 227] | 3.76 | 3.70 |  |  |  |  | 

Continued, in another order:

logP[a] [1] | logP[b] [2] | chromatographic logP ([1]; pH 2.7, HPLC method [a], read-out: logP[a]) | chromatographic logP [1, 3] | chromatographic logP [2] | Structure (SMILES) | efficacy (Tetranychus urticae; application rate of 100 g/ha) [%] | efficacy (Tetranychus urticae; application rate of 500 g/ha) [%]
2.65 | 2.60 |  |  |  | Cc1cc(F)c(-n2nc(SC(F)(F)F)n(C)c2=O)cc1[S+]([O-])CC(F)(F)F (racemic) [Example 284] |  | 100
3.24 | 3.17 |  |  |  | C=CCn1c(SC(C)C)nn(-c2cc([S+]([O-])CC(F)(F)F)c(C)cc2F)c1=O (racemic) [Example 285] |  | 100
3.08 | 3.02 |  |  |  | Cc1cc(F)c(-n2nc(SCc3ccccc3)n(C)c2=O)cc1[S+]([O-])CC(F)(F)F (racemic) [Example 287] |  | 100
3.30 | 3.25 |  |  |  | Cc1cc(F)c(-n2nc(SCC(F)F)n(C)c2=O)cc1[S+]([O-])CC(F)(F)F (racemic) [Example 289] |  | 100
 |  | 2.45 | 2.45 | 0.9 | Cc1cc(F)c(-n2nn[nH]c2=O)cc1SCC(F)(F)F [Example 299, 1-{2-Fluoro-4-methyl-5-[(2,2,2-trifluoroethyl)sulphanyl]phenyl}-1,4-dihydro-5H-tetrazol-5-one] |  | 
3.47 | 3.40 |  |  |  | N#Cc1cc(F)c(-n2nc(C(F)(F)F)oc2=O)cc1SCC(F)(F)F [Example 308] |  | 
3.02 | 2.98 |  |  |  | COC1=CC(=O)N(c2cc(SCC(F)(F)F)c(C)cc2Cl)C1 [Example 319] |  | 
2.57 | 2.52 |  |  |  | CCCOC1=CC(=O)N(c2cc([S+]([O-])CC(F)(F)F)c(C)cc2F)C1 (stereo not shown) [Example 333] |  | 
3.55 | 3.47 |  |  |  | Cc1cc(C)c(-n2ncn(Cc3ccccc3)c2=O)cc1SCC(F)(F)F [Example 373] |  | 
4.37 | 4.29 |  |  |  | CCCSc1nn(-c2cc(SCC(F)(F)F)c(C)cc2F)c(=O)n1CC [Example 426] |  | 
2.94 | 3.05 |  |  |  | C=CCSc1nn(-c2cc([S+]([O-])CC(F)(F)F)c(C)cc2F)c(=O)n1CC=C (stereo not shown) [Example 432] |  | 
3.08 | 3.00 |  |  |  | Cc1cc(F)c(-n2nc(Br)n(Cc3ccccc3)c2=O)cc1[S+]([O-])CC(F)(F)F (stereo not shown) [Example 443] |  | 
 |  |  | 2.34 | 2.3 | Cc1cc(F)c(NC(=S)NCC(F)(F)F)cc1[S+]([O-])CC(F)(F)F (stereo not shown) [IIb-1, 1-{2-Fluoro-4-methyl-5-[(2,2,2-trifluoroethyl)sulphinyl]phenyl}-3-(2,2,2-trifluoroethyl)thiourea] |  | 
 |  |  | 3.15 | 3.12 | Nc1cc(SCC(F)(F)F)c(Br)cc1F [IVa-14, 4-Bromo-2-fluoro-5-[(2,2,2-trifluoroethyl)sulphanyl]aniline] |  | 
 |  |  | 3.32 | 3.26 | N#Cc1cc(F)c(Br)cc1SCC(F)(F)F [VIIa-18, 4-Bromo-5-fluoro-2-[(2,2,2-trifluoroethyl)sulphanyl]benzonitrile] |  | 
